Columns and labels:
[1] = toxic and cytostatic effects on HELF cells in the anti-HCMV screening test; type: cell-based; details: human, concentration at which half the cells are destroyed
Experimental: The substances dissolved (50 mM) in DMSO (dimethyl sulphoxide) are investigated on microtitre plates (96-well) in duplicate determinations (4 substances/plate). Toxic and cytostatic effects of the substances are also detected thereby (CC50, corresponding to the concentration at which half the cells are destroyed owing to administration of the substance). After the appropriate substance dilutions (1:2) on the microtitre plate, a suspension of 50-100 HCMV-infected HELF cells and […] uninfected HELF cells in Eagle's MEM with 10% fetal calf serum are put in each well, and the plates are incubated at 37° C. in a CO2 incubator for several days. After this time, the cell lawn in the virus controls free of substance, starting from 50-100 infectious centres, is completely destroyed by the cytopathogenic effect of the HCMV (100% CPE). After staining with Neutral Red and fixing with formalin/methanol, the plates are evaluated using a projection microscope (plaque viewer).

[2] = test system: human cytomegalovirus (HCMV); experiment: anti-HCMV screening test (cytopathogenic effect) in HELF cell cultures; type: cell-based; details: Human betaherpesvirus 5; HCMV-infected HELF cells, 96-well plates; concentration giving 50% inhibition of virus activity (CPE, Neutral Red)
Experimental: The anti-HCMV action was determined in a screening test system in 96-well microtitre plates with the assistance of human embryonic lung fibroblasts (HELF) cell cultures. The affect of these substances on the extent of the cytopathogenic effect was determined by comparison with the reference substance ganciclovir (Cymevene^R sodium), a clinically approved anti-HCMV chemotherapeutic agent (EC50, corresponding to the effective concentration at which a 50% inhibition of virus activity is achieved).
The substances dissolved (50 mM) in DMSO (dimethyl sulphoxide) are investigated on microtitre plates (96-well) in duplicate determinations (4 substances/plate). Toxic and cytostatic effects of the substances are also detected thereby (CC50, corresponding to the concentration at which half the cells are destroyed owing to administration of the substance). […]
After this time, the cell lawn in the virus controls free of substance, starting from 50-100 infectious centres, is completely destroyed by the cytopathogenic effect of the HCMV (100% CPE). After staining with Neutral Red and fixing with formalin/methanol, the plates are evaluated using a projection microscope (plaque viewer).

Row | EC50 [2] [µM] | SMILES | CC50 [1] [µM]
1 | 0.39 | CC(=O)n1ccc2cc(S(=O)(=O)Nc3ccc(C(=O)NC(C)(C)C)cc3)ccc21 [Example 2, 4-[N-Acetylindole-5-sulphonylamino]-N-(tert-butyl)benzamide] | 86
2 | 0.055 | CCn1ccc2cc(S(=O)(=O)Nc3cccc(NC(=O)C(C)(C)CF)c3)ccc21 [Example 1, N-[(N-Ethylindole)-5-sulphonyl]-N′-(3-fluoro-2,2-dimethylpropanoyl)-1,3-diamino-benzene] | 15.6

From patent US6498183B1, “Substituted indole sulfonamides as anitviral agents” (Bayer Aktiengesellschaft, priority 1999, dated 2002)
